The results in this text go back to ChEMBL document CHEMBL3390830, “Targeting epigenetic modifiers: Inhibitors of histone methyltransferases” (Medchemcomm, 2010).

Structures are written as SMILES.

Experiment [1] concerns the target Histone-lysine N-methyltransferase Su(var)3-9 (Drosophila melanogaster, UniProt P45975). As to the kind of experiment: Inhibition of Drosophila melanogaster Su(var)3-9.
The target in experiment [2] is T1, Histone-lysine N-methyltransferase EHMT2 (Homo sapiens, UniProt Q96KQ7).
T1 sequence (Q96KQ7 whole entry): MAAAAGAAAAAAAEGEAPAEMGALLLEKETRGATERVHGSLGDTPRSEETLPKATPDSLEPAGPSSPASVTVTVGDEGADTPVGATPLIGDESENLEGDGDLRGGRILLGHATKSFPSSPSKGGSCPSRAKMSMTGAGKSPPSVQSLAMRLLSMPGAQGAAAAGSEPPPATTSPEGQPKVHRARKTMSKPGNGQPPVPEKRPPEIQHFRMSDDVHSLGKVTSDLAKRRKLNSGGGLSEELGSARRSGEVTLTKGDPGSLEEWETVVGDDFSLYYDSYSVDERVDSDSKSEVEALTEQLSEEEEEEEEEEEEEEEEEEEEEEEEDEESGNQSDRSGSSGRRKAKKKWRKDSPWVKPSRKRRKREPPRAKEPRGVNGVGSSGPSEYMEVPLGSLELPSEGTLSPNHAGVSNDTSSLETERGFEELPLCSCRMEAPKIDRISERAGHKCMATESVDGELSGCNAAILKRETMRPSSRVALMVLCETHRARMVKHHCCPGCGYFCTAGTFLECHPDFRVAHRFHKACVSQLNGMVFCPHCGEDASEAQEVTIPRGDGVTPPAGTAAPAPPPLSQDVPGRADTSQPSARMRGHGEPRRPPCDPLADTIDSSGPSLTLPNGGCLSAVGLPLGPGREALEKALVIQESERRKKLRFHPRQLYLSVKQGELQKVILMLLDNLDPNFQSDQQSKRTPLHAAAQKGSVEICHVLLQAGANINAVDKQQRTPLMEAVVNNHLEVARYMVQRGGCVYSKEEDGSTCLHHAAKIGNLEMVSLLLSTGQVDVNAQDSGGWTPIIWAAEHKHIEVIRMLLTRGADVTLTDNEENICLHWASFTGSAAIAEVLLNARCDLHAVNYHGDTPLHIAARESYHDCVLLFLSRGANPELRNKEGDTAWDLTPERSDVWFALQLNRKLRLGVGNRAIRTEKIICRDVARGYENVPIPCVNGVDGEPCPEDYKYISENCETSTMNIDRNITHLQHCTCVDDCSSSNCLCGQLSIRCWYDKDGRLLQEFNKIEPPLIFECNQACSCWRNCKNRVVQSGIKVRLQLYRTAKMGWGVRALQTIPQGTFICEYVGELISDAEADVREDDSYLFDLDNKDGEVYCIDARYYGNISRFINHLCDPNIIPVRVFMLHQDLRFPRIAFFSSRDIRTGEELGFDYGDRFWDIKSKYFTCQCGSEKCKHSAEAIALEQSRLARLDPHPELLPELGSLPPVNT
Description: Inhibition of G9a (unknown origin).

In experiment [3] the target is T1, Histone-lysine N-methyltransferase EHMT2. Description: Inhibition of G9a (685 to 1000) (unknown origin) expressed in Escherichia coli BL21 assessed as reduction of H3K9me2 level by DELFIA assay.
For experiment [4], the target named is T2, Protein arginine N-methyltransferase 1 (Homo sapiens, UniProt Q99873). Description: Inhibition of GST-fused PRMT1 (unknown origin) expressed in Escherichia coli BL21 assessed as reduction of asymmetric H4R3me2 level by DELFIA assay.
T2 sequence (Q99873 whole entry, the tested form may be a part): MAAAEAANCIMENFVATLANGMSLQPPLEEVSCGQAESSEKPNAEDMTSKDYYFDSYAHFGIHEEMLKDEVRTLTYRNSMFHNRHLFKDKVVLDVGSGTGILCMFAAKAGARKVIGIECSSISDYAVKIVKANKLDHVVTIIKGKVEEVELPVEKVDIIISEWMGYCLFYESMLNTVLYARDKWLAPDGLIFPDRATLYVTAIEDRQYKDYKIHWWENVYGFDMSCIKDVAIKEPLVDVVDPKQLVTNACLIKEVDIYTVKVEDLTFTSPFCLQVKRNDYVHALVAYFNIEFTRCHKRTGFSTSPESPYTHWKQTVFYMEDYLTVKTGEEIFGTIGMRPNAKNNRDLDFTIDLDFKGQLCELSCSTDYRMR
Experiment [5] concerns the target T2, Protein arginine N-methyltransferase 1. Description: Inhibition of human PRMT1 using GST-tagged Npl3 as substrate preincubated for 15 mins followed by enzyme addition measured after 1 hr by colorimetric assay.
Experiment [6] deals with T3, NAD-dependent protein deacetylase sirtuin-1 (Homo sapiens, UniProt Q96EB6).
T3 sequence (Q96EB6 whole entry): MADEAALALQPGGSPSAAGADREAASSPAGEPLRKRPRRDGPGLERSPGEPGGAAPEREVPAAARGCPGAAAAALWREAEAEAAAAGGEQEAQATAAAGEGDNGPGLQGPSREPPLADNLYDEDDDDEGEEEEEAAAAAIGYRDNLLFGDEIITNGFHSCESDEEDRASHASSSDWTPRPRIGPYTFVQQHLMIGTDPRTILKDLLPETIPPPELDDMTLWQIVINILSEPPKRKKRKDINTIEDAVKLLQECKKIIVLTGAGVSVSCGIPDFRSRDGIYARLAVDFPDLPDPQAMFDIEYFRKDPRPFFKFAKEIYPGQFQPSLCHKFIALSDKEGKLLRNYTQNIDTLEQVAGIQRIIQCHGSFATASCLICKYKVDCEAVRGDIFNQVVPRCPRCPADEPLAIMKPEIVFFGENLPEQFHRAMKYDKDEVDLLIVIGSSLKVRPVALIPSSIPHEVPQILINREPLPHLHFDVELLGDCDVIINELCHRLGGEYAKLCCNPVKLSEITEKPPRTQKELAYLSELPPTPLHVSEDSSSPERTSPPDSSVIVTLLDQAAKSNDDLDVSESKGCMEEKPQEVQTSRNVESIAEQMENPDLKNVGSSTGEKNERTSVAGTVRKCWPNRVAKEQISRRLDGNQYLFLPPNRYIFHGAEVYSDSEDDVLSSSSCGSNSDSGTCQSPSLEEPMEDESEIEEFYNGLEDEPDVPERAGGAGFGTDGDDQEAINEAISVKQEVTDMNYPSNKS
Description: Inhibition of recombinant human N-terminal GST-tagged full length SIRT1 expressed in Escherichia coli BL21(DE3) using ZMAL as substrate after 4 hrs by homogeneous fluorescent deacetylase assay.

Experiment [7] deals with T2, Protein arginine N-methyltransferase 1. Description: Inhibition of recombinant human GST-tagged PRMT1 assessed as inhibition of histone methylation.

Sequence of Histone-lysine N-methyltransferase Su(var)3-9 (P45975 whole entry): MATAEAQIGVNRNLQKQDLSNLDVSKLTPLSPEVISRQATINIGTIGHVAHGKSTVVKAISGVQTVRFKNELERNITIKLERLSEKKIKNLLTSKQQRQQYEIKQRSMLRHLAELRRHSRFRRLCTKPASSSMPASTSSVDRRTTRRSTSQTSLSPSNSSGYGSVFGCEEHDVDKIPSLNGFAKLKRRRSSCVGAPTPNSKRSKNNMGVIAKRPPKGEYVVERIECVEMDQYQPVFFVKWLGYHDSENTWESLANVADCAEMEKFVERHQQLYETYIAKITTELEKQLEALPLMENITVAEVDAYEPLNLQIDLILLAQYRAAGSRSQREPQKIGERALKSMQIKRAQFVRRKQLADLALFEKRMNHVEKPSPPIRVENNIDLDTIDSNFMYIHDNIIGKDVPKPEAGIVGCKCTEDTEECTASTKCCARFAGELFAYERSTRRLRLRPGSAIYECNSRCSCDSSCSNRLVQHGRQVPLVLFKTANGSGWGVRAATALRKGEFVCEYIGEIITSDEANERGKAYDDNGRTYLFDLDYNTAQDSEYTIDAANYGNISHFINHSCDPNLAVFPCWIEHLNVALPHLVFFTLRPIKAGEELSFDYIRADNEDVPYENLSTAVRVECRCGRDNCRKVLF

As for `CN1C(=O)[C@@]23C[C@]4([C@]56C[C@@]78SS[C@@](CO)(C(=O)N7[C@H]5Nc5ccccc56)N(C)C8=O)c5ccccc5N[C@@H]4N2C(=O)[C@]1(CO)SS3` [CHAETOCIN], the IC50 is 0.8 µM in experiment [1] and 2.5 µM in experiment [2].
`COc1ccc(C(=O)Oc2ccc(CCn3c(NC(=O)c4ccc(C(F)(F)F)cc4)nc4cc(C(=O)O)ccc43)cc2)cc1`: the half-inhibitory concentration (IC50) turned out to be 5 µM in experiment [3] and 6 µM in experiment [4].
As for `O=C1OC2(c3ccccc31)c1cc(Br)c(O)c(Br)c1Oc1c2cc(Br)c(O)c1Br` [EOSIN], the IC50 in experiment [5] was determined as 1 µM.
Turning to `O=C(Nc1ccc2c(O)cc(S(=O)(=O)O)cc2c1)Nc1ccc2c(O)cc(S(=O)(=O)O)cc2c1`, the IC50 in experiment [6] is 32 µM.
On to `COc1ccc(/N=N/c2c(S(=O)(=O)O)cc3cc(Cc4nc(Cl)nc(Cl)n4)ccc3c2O)cc1`, for which the IC50 in experiment [7] stood at 4 µM.

Usually IC50 stands for the concentration needed to halve the response being measured.
